The source of these data is US20090069623A1, “METHODS AND COMPOSITIONS FOR TREATMENT OR PREVENTION OF RADIATION-INDUCED FIBROSIS” (Virginia Commonwealth University Intellectual Property …, priority 2007, published 2009).

Format in all cases: cell-based, human
Assay [1] has as its system CTGF, fibronectin (FN), collagen type IV (Col IV) mRNA. The assay can be described thus: RT-PCR of TGF-β1-induced mRNA expression in HFL-1 cells treated with simvastatin. The note with it: 10 ng/ml TGF-β1 for 20 hours, FIG. 7A. Here is the method: Cell Culture and Treatment. Normal human fetal lung fibroblasts (HFL-1) were purchased from the American Type Culture Collection (ATCC Number: CCL-153) and cultured in Ham's F12K medium (American Type Culture Collection) supplemented with 2 mM L-glutamine adjusted to contain 1.5 g/L sodium bicarbonate and 10% fetal bovine serum. Cells were maintained in humidified 5% CO2 at 37° C. Human dermal fibroblasts (HDF), derived from the dermis of normal human adult skin, were purchased from Invitrogen, Inc. and cultured in Medium-106 (Invitrogen, Inc., Catalogue No. M-106-500) containing LSGS Kit (Invitrogen, Inc., Catalogue No. […]) prior to use. After reaching 75-80% confluence, the medium was changed to serum free medium (SFM) for irradiation with different dose 1Gy, 2.5Gy, 5Gy, 7.5Gy and 10 Gy by using ^137Se. Alternatively, cells were treated with 5 ng/ml TGF-β1 (Sigma-Aldrich, Inc., Catalogue No. T7039) to stimulate CTGF production. The cells were then kept for 3 days in humidified 5% CO2 at 37° C. and subjected to Western immunoblot.^1 ^1What are the culture conditions (e.g., media) for M12 cells used in FIG. 3? RT-PCR analysis of CTGF, COL-IV, FN and hβ2M. […] The ability of statins to inhibit TGF-β1-mediated induction of CTGF, fibronectin, and collagen type IV was assessed in HFL-1 cells. […]

Assay [2] relates to CTGF, fibronectin. The assay can be described thus: Western blot of HFL-1 cells treated with TGF-β1 and simvastatin. The note with it: TGF-β1 plus simvastatin, three days, FIG. 7B. Here is the method:
Cell Culture and Treatment. Normal human fetal lung fibroblasts (HFL-1) were purchased from the American Type Culture Collection (ATCC Number: CCL-153) and cultured in Ham's F12K medium (American Type Culture Collection) supplemented with 2 mM L-glutamine adjusted to contain 1.5 g/L sodium bicarbonate and 10% fetal bovine serum. Cells were maintained in humidified 5% CO2 at 37° C. Human dermal fibroblasts (HDF), derived from the dermis of normal human adult skin, were purchased from Invitrogen, Inc. and cultured in Medium-106 (Invitrogen, Inc., Catalogue No. M-106-500) containing LSGS Kit (Invitrogen, Inc., Catalogue No. S-003-K) prior to use. […]
Harvesting Culture Media and Cell Lystates. For analysis of extracellular CTGF, fibronectin, and α-tubulin, cell culture media was collected, centrifuged to remove cellular debris, aliquoted, and frozen at −70° C. until ready for use. […]
Western blot analysis of HFL-1 whole cell proteins. […] After washing the blot, the antibodies were detected by the enhanced chemiluminescence method (PerkinElmer Life Sciences Inc.).
The separated proteins were then transferred to nitrocellulose, and Western immunoblotting was performed with antibodies specific for CTGF, fibronectin, and α-tubulin. […] As a control for protein loading, α-tubulin expression in HFL-1 cells was also determined.
For orientation: Immunoblotting shows a protein as a band on a membrane.

Assay [3] concerns CTGF, fibronectin. The assay can be described thus: Western blot of irradiated HFL-1 cells treated with HMG-CoA inhibitors. The following applies: simvastatin pretreatment 6 hours, 5 Gy, three days, FIG. 8B. The method, then: For statin treatment experiments, cells were grown overnight in 35 mm plates (6-well plates were also used in some studies) to form a 75-80% confluent monolayer. The cells were then washed with PBS, and the media was changed to SFM (800 μL).
Harvesting Culture Media and Cell Lystates. For analysis of extracellular CTGF, fibronectin, and α-tubulin, cell culture media was collected, centrifuged to remove cellular debris, aliquoted, and frozen at −70° C. until ready for use. For analysis of intracellular CTGF, fibronectin, and α-tubulin, cell lysates were harvested using 200 μL of HBSST lysis buffer (HBSS containing 1 mM MgSO4, 1 mM CaCl2, 4 mM NaHCO3, 0.5% Triton X-100, protease inhibitor cocktail). Cellular debris was removed by centrifugation.
Western blot analysis of HFL-1 whole cell proteins. […] Primary antibodies for CTGF and fibronectin were diluted at 1:600 and were incubated at 4° C. overnight with shaking. Primary antibodies for α-tubulin were diluted at 1:4,000 and were incubated at 4° C. overnight with shaking. Corresponding secondary antibodies were diluted at 1:6,000 and were incubated at room temperature for 1 hour with shaking. After washing the blot, the antibodies were detected by the enhanced chemiluminescence method (PerkinElmer Life Sciences Inc.).
Cells were harvested, and cell lysates were separated by SDS-PAGE. The separated proteins were then transferred to nitrocellulose, and Western immunoblotting was performed with antibodies specific for CTGF, fibronectin, and α-tubulin. […] As a control for protein loading, α-tubulin expression in HFL-1 cells was also determined.
Cells were harvested, and cell lysates were separated by SDS-PAGE. The separated proteins were then transferred to nitrocellulose, and Western immunoblotting was performed with antibodies specific for CTGF, fibronectin, and α-tubulin. FIG. 8C is a Western blot of HFL-1 cells exposed to radiation and treated with HMG-CoA inhibitors.

For the compound `CCC(C)(C)C(=O)O[C@H]1C[C@@H](C)C=C2C=C[C@H](C)[C@H](CC[C@@H]3C[C@@H](O)CC(=O)O3)[C@H]21` [simvastatin, 2,2-dimethyl-butanoic acid(1S,3R,7S,8S,8aR)-1,2,3,7,8,8a-hexahydro-3,7-dimethyl-8-[2-[(2R,4R)-tetrahydro-4-hydroxy-6-oxo-2H-pyran-2-yl]ethyl]-1-naphthalenylester], the “CTGF, FN, and Col IV mRNA expression” value in assay [1] (0.1 μM simvastatin) is “reduction in CTGF, FN, and Col IV mRNA expression”; in assay [1] (increasing concentration of simvastatin), “reduction in CTGF, FN, and Col IV mRNA expression became more pronounced”. The fibronectin protein expression entry in assay [2] and in assay [3] was “decrease in protein expression or fibronectin” throughout.
